In this test the target is T1, HLA-B*13:01 (with beta-2-microglobulin) (Homo sapiens, UniProt A0A583ZBB4).
T1 construct: for SPR incubated with beta-2-microglobulin (Chemicon) and amine-coupled; no peptide ligand mentioned for SPR; with Beta-2-microglobulin
Nature of the test: surface plasmon resonance (Biacore T200), protein immobilised by amine coupling. The class given is binding.

Here are results for one compound from publication PMC9375929, “Functional and structural characteristics of HLA-B*13:01-mediated specific T cells reaction in dapsone-induced drug hypersensitivity” (Journal of Biomedical Science, 2022).

Structures are written as SMILES.

One may read the Kd as the concentration at which binding is half-saturated. `Nc1ccc(S(=O)(=O)c2ccc(N)cc2)cc1` [DDS] had a dissociation constant (Kd) of 68.5 µM.
